Data taken from ChEMBL document CHEMBL1201861, “Genomics of Drug Sensitity in Cancer screening data, Wellcome Trust Sanger Institute”.

How the values were obtained:
Test in all cases: cells
RO82-W-1 = type: functional, cell-based, Homo sapiens; conditions: Homo sapiens, RO82-W-1;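 note: growth inhibition of human RO82-W-1 cells, measured with a cell viability assay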
Description: SANGER: Inhibition of human RO82-W-1 cell growth in a cell viability assay.

COLO-792 = type: functional, cell-based, Homo sapiens; conditions: Homo sapiens, COLO-792
Description: SANGER: Inhibition of human COLO-792 cell growth in a cell viability assay.

SNU-C2B = type: functional, cell-based, Homo sapiens; conditions: Homo sapiens, SNU-C2B;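 note: cell viability readout used to measure compound-driven suppression of SNU-C2B cell proliferation, IC50 marking half-maximal growth inhibition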
Description: SANGER: Inhibition of human SNU-C2B cell growth in a cell viability assay.

MOLT-4 = type: functional, cell-based; conditions: Homo sapiens;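 note: growth inhibition of MOLT-4 cells, determined with a cell viability readout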
Description: SANGER: Inhibition of human MOLT-4 cell growth in a cell viability assay.

ES8 = type: functional, cell-based, Homo sapiens; conditions: Homo sapiens, ES8;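 note: growth inhibition of human ES8 cells, read out with a cell viability assay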
Description: SANGER: Inhibition of human ES8 cell growth in a cell viability assay.

MKN-7 = type: functional, cell-based, Homo sapiens; conditions: Homo sapiens, MKN-7;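 note: growth inhibition of MKN-7 cells, read out with a cell viability assay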
Description: SANGER: Inhibition of human MKN7 cell growth in a cell viability assay.

COLO-824 = type: functional, cell-based, Homo sapiens; conditions: Homo sapiens, COLO-824
Description: SANGER: Inhibition of human COLO-824 cell growth in a cell viability assay.

HCC70 = type: functional, cell-based, Homo sapiens; conditions: Homo sapiens, HCC70;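 note: cell viability assay measuring how strongly the compound suppresses proliferation of HCC70 cells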
Description: SANGER: Inhibition of human HCC70 cell growth in a cell viability assay.

NCI-H1355 = type: functional, cell-based, Homo sapiens; conditions: Homo sapiens, NCI-H1355;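 note: growth inhibition of human NCI-H1355 cells, read out by a cell viability assay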
Description: SANGER: Inhibition of human NCI-H1355 cell growth in a cell viability assay.

SW1088 = type: functional, cell-based, Homo sapiens; conditions: Homo sapiens, SW1088;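 note: growth inhibition of human SW1088 cells, read out by a cell viability assay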
Description: SANGER: Inhibition of human SW1088 cell growth in a cell viability assay.

769-P = type: functional, cell-based, Homo sapiens; conditions: Homo sapiens, 769-P
Description: SANGER: Inhibition of human 769-P cell growth in a cell viability assay.

NTERA-2-cl-D1 = type: functional, cell-based, Homo sapiens; conditions: Homo sapiens, NTERA-2-cl-D1;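 note: inhibition of cell growth, measured with a cell viability assay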
Description: SANGER: Inhibition of human NTERA-S-cl-D1 cell growth in a cell viability assay.

CAKI-1 = type: functional, cell-based, Homo sapiens; conditions: Homo sapiens, CAKI-1;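 note: growth inhibition of CAKI-1 cells, measured by a cell viability assay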
Description: SANGER: Inhibition of human CAKI-1 cell growth in a cell viability assay.

HOP-62 = type: functional, cell-based, Homo sapiens; conditions: Homo sapiens, HOP-62;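 note: cell growth inhibition determined with a viability assay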
Description: SANGER: Inhibition of human HOP-62 cell growth in a cell viability assay.

TYK-nu = type: functional, cell-based, Homo sapiens; conditions: Homo sapiens, TYK-nu;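 note: growth inhibition of human TYK-nu cells, read out by a cell viability assay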
Description: SANGER: Inhibition of human TYK-nu cell growth in a cell viability assay.

NCI-H1155 = type: functional, cell-based; conditions: Homo sapiens;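 note: cell growth inhibition measured by a viability assay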
Description: SANGER: Inhibition of human NCI-H1155 cell growth in a cell viability assay.

A2058 = type: functional, cell-based; conditions: Homo sapiens;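 note: reduction of A2058 cell growth, read out with a viability assay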
Description: SANGER: Inhibition of human A2058 cell growth in a cell viability assay.

KU812 cell line = type: functional, cell-based; conditions: Homo sapiens;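 note: growth inhibition of KU812 cells, read out with a cell viability assay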
Description: SANGER: Inhibition of human KU812 cell growth in a cell viability assay.

MDA-MB-231 = type: functional, cell-based, Homo sapiens; conditions: Homo sapiens, MDA-MB-231
Description: SANGER: Inhibition of human MDA-MB-231 cell growth in a cell viability assay.

PANC-03-27 = type: functional, cell-based, Homo sapiens; conditions: Homo sapiens, PANC-03-27
Description: SANGER: Inhibition of human PANC-03-27 cell growth in a cell viability assay.

KYSE-270 = type: functional, cell-based, Homo sapiens; conditions: Homo sapiens, KYSE-270;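 note: cell growth inhibition measured with a viability assay in the human KYSE-270 line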
Description: SANGER: Inhibition of human KYSE-270 cell growth in a cell viability assay.

J82 = type: functional, cell-based; conditions: Homo sapiens;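 note: growth inhibition of J82 cells, read out with a cell viability assay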
Description: SANGER: Inhibition of human J82 cell growth in a cell viability assay.

EW-13 = type: functional, cell-based; conditions: Homo sapiens;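 note: growth inhibition of EW-13 cells, read out with a cell viability assay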
Description: SANGER: Inhibition of human EW-13 cell growth in a cell viability assay.

ES7 = type: functional, cell-based, Homo sapiens; conditions: Homo sapiens, ES7;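 note: growth inhibition of cultured human ES7 cells, read out as cell viability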
Description: SANGER: Inhibition of human ES7 cell growth in a cell viability assay.

RMG-I = type: functional, cell-based, Homo sapiens; conditions: Homo sapiens, RMG-I;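 note: growth inhibition of human RMG-I cells, read out with a cell viability assay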
Description: SANGER: Inhibition of human RMG-I cell growth in a cell viability assay.

COLO-668 = type: functional, cell-based, Homo sapiens; conditions: Homo sapiens, COLO-668
Description: SANGER: Inhibition of human COLO-668 cell growth in a cell viability assay.

YAPC = type: functional, cell-based, Homo sapiens; conditions: Homo sapiens, YAPC;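 note: growth inhibition of YAPC cells, measured with a cell viability assay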
Description: SANGER: Inhibition of human YAPC cell growth in a cell viability assay.

HGC-27 = type: functional, cell-based, Homo sapiens; conditions: Homo sapiens, HGC-27;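 note: growth inhibition of human HGC-27 cells, read out in a cell viability assay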
Description: SANGER: Inhibition of human HGC-27 cell growth in a cell viability assay.

MDA-MB-157 = type: functional, cell-based, Homo sapiens; conditions: Homo sapiens, MDA-MB-157
Description: SANGER: Inhibition of human MDA-MB-157 cell growth in a cell viability assay.

COLO-320-HSR = type: functional, cell-based; conditions: Homo sapiens;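 note: growth inhibition of COLO-320-HSR cells, determined with a cell viability assay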
Description: SANGER: Inhibition of human COLO-320-HSR cell growth in a cell viability assay.

SW48 = type: functional, cell-based, Homo sapiens; conditions: Homo sapiens, SW48;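 note: growth inhibition of SW48 cells, read out with a cell viability assay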
Description: SANGER: Inhibition of human SW48 cell growth in a cell viability assay.

HCC1806 = type: functional, cell-based, Homo sapiens; conditions: Homo sapiens, HCC1806;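 note: growth inhibition of the cancer cell line, determined with a cell viability assay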
Description: SANGER: Inhibition of human HCC1806 cell growth in a cell viability assay.

D-542MG = type: functional, cell-based, Homo sapiens; conditions: Homo sapiens, D-542MG
Description: SANGER: Inhibition of human D-542MG cell growth in a cell viability assay.

EFO-21 = type: functional, cell-based, Homo sapiens; conditions: Homo sapiens, EFO-21;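 note: growth inhibition of EFO-21 cells measured with a viability assay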
Description: SANGER: Inhibition of human EFO-21 cell growth in a cell viability assay.

Daoy = type: functional, cell-based, Homo sapiens; conditions: Homo sapiens, Daoy;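 note: daoy cell growth inhibition, read out as cell viability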
Description: SANGER: Inhibition of human Daoy cell growth in a cell viability assay.

LoVo = type: functional, cell-based; conditions: Homo sapiens;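 note: growth inhibition of human LoVo cells, read out with a cell viability assay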
Description: SANGER: Inhibition of human LoVo cell growth in a cell viability assay.

SW982 = type: functional, cell-based; conditions: Homo sapiens;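 note: growth inhibition of SW982 cells, read out with a cell viability assay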
Description: SANGER: Inhibition of human SW982 cell growth in a cell viability assay.

HCC1937 = type: functional, cell-based, Homo sapiens; conditions: Homo sapiens, HCC1937;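 note: growth inhibition measured with a cell viability read-out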
Description: SANGER: Inhibition of human HCC1937 cell growth in a cell viability assay.

D-263MG = type: functional, cell-based, Homo sapiens; conditions: Homo sapiens, D-263MG
Description: SANGER: Inhibition of human D-263MG cell growth in a cell viability assay.

NCI-H2030 = type: functional, cell-based, Homo sapiens; conditions: Homo sapiens, NCI-H2030;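 note: growth inhibition of human NCI-H2030 cells, read out by a cell viability assay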
Description: SANGER: Inhibition of human NCI-H2030 cell growth in a cell viability assay.

BT-474 = type: functional, cell-based, Homo sapiens; conditions: Homo sapiens, BT-474
Description: SANGER: Inhibition of human BT-474 cell growth in a cell viability assay.

HD-MY-Z = type: functional, cell-based, Homo sapiens; conditions: Homo sapiens, HD-MY-Z;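 note: growth inhibition of HD-MY-Z cells, read out with a cell viability assay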
Description: SANGER: Inhibition of human HD-MY-Z cell growth in a cell viability assay.

TE-6 = type: functional, cell-based, Homo sapiens; conditions: Homo sapiens, TE-6;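 note: growth inhibition of TE-6 cells, read out with a cell viability assay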
Description: SANGER: Inhibition of human TE-6 cell growth in a cell viability assay.

COLO-680N = type: functional, cell-based, Homo sapiens; conditions: Homo sapiens, COLO-680N;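 note: cell viability assay used to measure inhibition of COLO-680N cell growth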
Description: SANGER: Inhibition of human COLO-680N cell growth in a cell viability assay.

NCI-H28 = type: functional, cell-based, Homo sapiens; conditions: Homo sapiens, NCI-H28;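 note: growth inhibition of human NCI-H28 cells, read out as cell viability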
Description: SANGER: Inhibition of human NCI-H28 cell growth in a cell viability assay.

C2BBe1 = type: functional, cell-based, Homo sapiens; conditions: Homo sapiens, C2BBe1;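 note: growth inhibition of C2BBe1 cells, read out through a viability assay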
Description: SANGER: Inhibition of human C2BBe1 cell growth in a cell viability assay.

MG-63 = type: functional, cell-based, Homo sapiens; conditions: Homo sapiens, MG-63;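 note: growth inhibition of human MG-63 cells, read out with a cell viability assay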
Description: SANGER: Inhibition of human MG-63 cell growth in a cell viability assay.

EW-1 = type: functional, cell-based, Homo sapiens; conditions: Homo sapiens, EW-1
Description: SANGER: Inhibition of human EW-1 cell growth in a cell viability assay.

HuO-3N1 = type: functional, cell-based, Homo sapiens; conditions: Homo sapiens, HuO-3N1;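 note: cell viability readout used to measure how strongly compounds suppress proliferation of human HuO-3N1 cells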
Description: SANGER: Inhibition of human HuO-3N1 cell growth in a cell viability assay.

ABC-1 = type: functional, cell-based, Homo sapiens; conditions: Homo sapiens, ABC-1;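 note: growth inhibition of human ABC-1 cells, read out by a cell viability assay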
Description: SANGER: Inhibition of human ABC-1 cell growth in a cell viability assay.

`Cc1cnc(-c2cnc(NCCNc3ccc(C#N)cn3)nc2-c2ccc(Cl)cc2Cl)[nH]1` [LADUVIGLUSIB] showed an IC50 (RO82-W-1) greater than 2.56 µM, an IC50 (COLO-792) greater than 2.56 µM and an IC50 (SNU-C2B) greater than 2.56 µM. It also gave an IC50 (MOLT-4) greater than 2.56 µM, an IC50 (ES8) greater than 2.56 µM and an IC50 (MKN-7) greater than 2.56 µM. It also gave an IC50 (COLO-824) greater than 2.56 µM, an IC50 (HCC70) greater than 2.56 µM and an IC50 (NCI-H1355) greater than 2.56 µM. For the same compound, the IC50 (SW1088) was greater than 2.56 µM, the IC50 (769-P) was 0.585 µM and the IC50 (NTERA-2-cl-D1) was greater than 2.56 µM. For the same compound, the IC50 (CAKI-1) was greater than 2.56 µM, the IC50 (HOP-62) was greater than 2.56 µM and the IC50 (TYK-nu) was 1.08 µM. For the same compound, the IC50 (NCI-H1155) was greater than 2.56 µM, the IC50 (A2058) was greater than 2.56 µM and the IC50 (KU812 cell line) was greater than 2.56 µM. It also gave an IC50 (MDA-MB-231) greater than 2.56 µM, an IC50 (PANC-03-27) greater than 2.56 µM and an IC50 (KYSE-270) greater than 2.56 µM. It also gave an IC50 (J82) greater than 2.56 µM, an IC50 (EW-13) greater than 2.56 µM and an IC50 (ES7) greater than 2.56 µM. The IC50 (RMG-I) was greater than 2.56 µM, the IC50 (COLO-668) was greater than 2.56 µM and the IC50 (YAPC) was greater than 2.56 µM. The IC50 (HGC-27) was greater than 2.56 µM, the IC50 (MDA-MB-157) was greater than 2.56 µM and the IC50 (COLO-320-HSR) was greater than 2.56 µM. The IC50 (SW48) was greater than 2.56 µM, the IC50 (HCC1806) was greater than 2.56 µM and the IC50 (D-542MG) was greater than 2.56 µM. The IC50 (EFO-21) was greater than 2.56 µM, the IC50 (Daoy) was greater than 2.56 µM and the IC50 (LoVo) was greater than 2.56 µM. The IC50 (SW982) was 0.214 µM, the IC50 (HCC1937) was greater than 2.56 µM and the IC50 (D-263MG) was greater than 2.56 µM. The IC50 (NCI-H2030) was greater than 2.56 µM, the IC50 (BT-474) was greater than 2.56 µM and the IC50 (HD-MY-Z) was greater than 2.56 µM. For the same compound, the IC50 (TE-6) was greater than 2.56 µM, the IC50 (COLO-680N) was greater than 2.56 µM and the IC50 (NCI-H28) was greater than 2.56 µM. The IC50 (C2BBe1) was greater than 2.56 µM, the IC50 (MG-63) was greater than 2.56 µM and the IC50 (EW-1) was greater than 2.56 µM. The IC50 (HuO-3N1) was greater than 2.56 µM and the IC50 (ABC-1) was greater than 2.56 µM.

For `C[C@]1(O)C[C@@H](c2nc(-c3ccc4ccc(-c5ccccc5)nc4c3)c3c(N)nccn32)C1` [LINSITINIB], the IC50 (RO82-W-1) was greater than 2.56 µM, the IC50 (COLO-792) was greater than 2.56 µM and the IC50 (SNU-C2B) was greater than 2.56 µM. The IC50 (MOLT-4) was greater than 2.56 µM, the IC50 (ES8) was greater than 2.56 µM and the IC50 (MKN-7) was greater than 2.56 µM. It also gave an IC50 (COLO-824) greater than 2.56 µM, an IC50 (HCC70) greater than 2.56 µM and an IC50 (NCI-H1355) of 0.181 µM. It also gave an IC50 (SW1088) greater than 2.56 µM, an IC50 (769-P) greater than 2.56 µM and an IC50 (NTERA-2-cl-D1) greater than 2.56 µM. The IC50 (CAKI-1) was greater than 2.56 µM, the IC50 (HOP-62) was greater than 2.56 µM and the IC50 (TYK-nu) was greater than 2.56 µM. For the same compound, the IC50 (NCI-H1155) was greater than 2.56 µM, the IC50 (A2058) was greater than 2.56 µM and the IC50 (KU812 cell line) was greater than 2.56 µM. For the same compound, the IC50 (MDA-MB-231) was greater than 2.56 µM, the IC50 (PANC-03-27) was greater than 2.56 µM and the IC50 (KYSE-270) was greater than 2.56 µM. It also gave an IC50 (J82) greater than 2.56 µM, an IC50 (EW-13) greater than 2.56 µM and an IC50 (ES7) greater than 2.56 µM. The IC50 (RMG-I) was greater than 2.56 µM, the IC50 (COLO-668) was 0.847 µM and the IC50 (YAPC) was greater than 2.56 µM. For the same compound, the IC50 (HGC-27) was greater than 2.56 µM, the IC50 (MDA-MB-157) was greater than 2.56 µM and the IC50 (COLO-320-HSR) was 0.414 µM. The IC50 (SW48) was greater than 2.56 µM, the IC50 (HCC1806) was greater than 2.56 µM and the IC50 (D-542MG) was greater than 2.56 µM. The IC50 (EFO-21) was greater than 2.56 µM, the IC50 (Daoy) was greater than 2.56 µM and the IC50 (LoVo) was greater than 2.56 µM. For the same compound, the IC50 (SW982) was greater than 2.56 µM, the IC50 (HCC1937) was greater than 2.56 µM and the IC50 (D-263MG) was greater than 2.56 µM. For the same compound, the IC50 (NCI-H2030) was greater than 2.56 µM, the IC50 (BT-474) was greater than 2.56 µM and the IC50 (HD-MY-Z) was greater than 2.56 µM. The IC50 (TE-6) was greater than 2.56 µM, the IC50 (COLO-680N) was greater than 2.56 µM and the IC50 (NCI-H28) was greater than 2.56 µM. It also gave an IC50 (C2BBe1) greater than 2.56 µM, an IC50 (MG-63) greater than 2.56 µM and an IC50 (EW-1) of 0.0858 µM. The IC50 (HuO-3N1) was greater than 2.56 µM and the IC50 (ABC-1) was 0.904 µM.
